We go through six compounds from ChEMBL document CHEMBL1150088, “Bioactive Guanidine Alkaloids from Pterogyne nitens” (J Nat Prod, 1995).

Converted amounts (≈) assume the structure as drawn. Bounds are passed on as bounds.

In test [1] the test system is Saccharomyces cerevisiae. Put plainly: DNA damaging activity against RS322YK rad52Y DNA repair gene deficient Saccharomyces cerevisiae mutant assessed as drug level required to produce 12 mm zone of inhibition after 48 hrs. The class given is functional.
The test system of test [2] is Saccharomyces cerevisiae. Briefly: DNA damaging activity against RS167N rad6 DNA repair gene deficient Saccharomyces cerevisiae mutant assessed as drug level required to produce 12 mm zone of inhibition after 48 hrs. In kind it is functional.
Test [3] can be described thus: Cytotoxicity against CHOAUXB1 cells. The class given is cell-based. The settings on record: Cricetulus griseus.
Test [4] concerns Saccharomyces cerevisiae. Briefly: DNA damaging activity against RS321 DNA repair gene deficient Saccharomyces cerevisiae mutant assessed as drug level required to produce 12 mm zone of inhibition after 48 hrs. In kind it is functional.
In test [5] the test system is Saccharomyces cerevisiae. Briefly: DNA damaging activity against RS188N rad DNA repair gene expressing Saccharomyces cerevisiae assessed as drug level required to produce 12 mm zone of inhibition after 48 hrs. The class given is functional.

Turning to `CC[C@@]1(O)C(=O)OCc2c1cc1n(c2=O)Cc2cc3ccccc3nc2-1` [CAMPTOTHECIN], the IC12 is 0.6 µg/mL in test [1] and 8.7 µg/mL in test [2]. Further, the IC50 (as a rule, the point on the concentration scale where inhibition reaches its midpoint) in test [3] is 0.016 µg/mL (≈ 0.0459 µM).

Regarding `CC(C)=CCC/C(C)=C/CNC(=N)NC/C=C(\C)CCC=C(C)C` [NITENSIDINE A], the IC12 was more than 1000 µg/mL in test [1], more than 8000 µg/mL in test [2], 6 µg/mL in test [4] and more than 1000 µg/mL in test [5]. Besides, the IC50 in test [3] turned out to be 13 µg/mL (≈ 39.2 µM).

For `CC(C)=CCC/C(C)=C/CN(C/C=C(\C)CCC=C(C)C)C(=N)N` [NITENSIDINE B], the IC12 in test [1] was more than 500 µg/mL; in test [2] it was more than 8000 µg/mL; in test [4], 10 µg/mL; in test [5] it was more than 1000 µg/mL. This compound also had an IC50 in test [3] of 9.3 µg/mL (≈ 28.1 µM).

For `CC(C)=CCC/C(C)=C/CN(C)C(=N)N(C)C/C=C(\C)CCC=C(C)C` [NITENSIDINE C], the IC12 in test [1] is more than 8000 µg/mL; in test [2] it was more than 8000 µg/mL; in test [4], 13 µg/mL; in test [5] it was more than 8000 µg/mL. In test [3], this compound gave an IC50 of 20 µg/mL (≈ 55.6 µM).

As to `CC(C)=CCNC(=N)NCC=C(C)C` [PTEROGYNIDINE], the IC12 is more than 1000 µg/mL in test [1], more than 1000 µg/mL in test [2], 8.5 µg/mL in test [4] and more than 1000 µg/mL in test [5].

In the case of `COC1=C(N)C(=O)c2nc(-c3nc(C(=O)O)c(C)c(-c4ccc(OC)c(OC)c4O)c3N)ccc2C1=O` [STREPTONIGRIN], the IC12 in test [1] was found to be 0.4 µg/mL; in test [2], 2.4 µg/mL.
